Measured values: paper PMC3128364 (Journal of Clinical Biochemistry and Nutrition, 2011)

Molecular target: T1, intestinal maltase
T1 construct: gene Mgam; native, crude extract of rat intestinal acetone powder (Sigma)
Test: glucose release from maltose, glucose oxidase kit
Format: biochemical, Rattus norvegicus
Settings: 37 mM maltose (70 µL), 0.1 M phosphate pH 6.9, 37 °C, 30 min

IC50 | Structure (SMILES)
2320 µM | C[C@@H]1O[C@@H](OC[C@H]2O[C@@H](Oc3cc4c(O)cc(O)cc4[o+]c3-c3ccc(O)c(O)c3)[C@H](O)[C@@H](O)[C@@H]2O)[C@H](O)[C@H](O)[C@H]1O [C3R, cyanidin-3-rutinoside]
2.7 ± 0.1 µM | C[C@H]1O[C@H](O[C@H]2[C@H](O)[C@@H](O)[C@@H](O[C@H]3[C@H](O)[C@@H](O)C(O)O[C@@H]3CO)O[C@@H]2CO)[C@H](O)[C@@H](O)[C@@H]1N[C@H]1C=C(CO)[C@@H](O)[C@H](O)[C@H]1O (some centres unmarked) [Acarbose]
